Active and inactive are the calls of the source. No cut-off for these calls is given here.
Legend:
Type in all cases: functional, organism-based
[1] = tested on: Pseudomonas aeruginosa; test: Tested for broad spectrum antibacterial activity against Pseudomonas aeruginosa; A - active compound
[2] = tested on: Streptococcus pneumoniae; test: Antibacterial activity against Streptococcus pneumoniae at a concentration of 2 ug/mL; A - weak activity was observed
[3] = tested on: Escherichia coli; test: Antibacterial activity against Escherichia coli 1850-WT strain at 16 ug/mL concentration; A - low activity was observed
[4] = tested on: Escherichia coli; test: Antibacterial activity against Escherichia coli 1852-PM strain at 16 ug/mL concentration; A - low activity was observed
[5] = tested on: Staphylococcus aureus; test: Antibacterial activity against resistant strains of Staphylococcus aureus at 2-32 ug/mL concentration; A - weak activity was observed
[6] = tested on: Pseudomonas aeruginosa; test: Antibacterial activity against Pseudomonas aeruginosa at concentrations >32 ug/mL; inactive
[7] = tested on: Staphylococcus aureus; test: Antibacterial activity against sensitive strains of Staphylococcus aureus at 2-32 ug/mL concentration; A - weak activity was observed
[8] = tested on: Staphylococcus epidermidis; test: Antibacterial activity against Staphylococcus epidermidis at 2 ug/mL concentration; A - weak activity was observed
[9] = tested on: Escherichia coli; test: Antibacterial activity against Escherichia coli 1919-PM/TEM-1 strains at a concentration of at 16 ug/mL concentration; A - low activity was observed
[10] = tested on: Escherichia coli; test: Antibacterial activity against Escherichia coli 851 at 16 ug/mL concentration; A - low activity was observed

SMILES	Activity [1]	Activity [2]	Activity [3]	Activity [4]	Activity [5]	Activity [6]	Activity [7]	Activity [8]	Activity [9]	Activity [10]
C[C@@H](O)[C@H]1C(=O)N2C(C(=O)O)=C(SCCN)C[C@H]12	Low activity	–	–	–	–	–	–	–	–	–
C[C@@H](O)[C@H]1C(=O)N2C(C(=O)O)=C(S[C@@H]3CN[C@H](C(=O)N(C)C)C3)[C@H](C)[C@H]12	Low activity	–	–	–	–	–	–	–	–	–
C[C@@H](O)[C@H]1C(=O)N2C(C(=O)O)=C3SCC[C@H]3[C@H]12	–	Low activity	Low activity	Low activity	Low activity	inactive	Low activity	Low activity	Low activity	Low activity
